{"source": "paper PMC9499506", "about": "“TNF-α and IL-1β Modulate Blood-Brain Barrier Permeability and Decrease Amyloid-β Peptide Efflux in a Human Blood-Brain Barrier Model” (International Journal of Molecular Sciences, 2022)", "type_in_all_cases": "cell-based, human", "key": {"BLECs [1]": {"system": "BLECs", "assay": "RT-qPCR of junctional protein mRNA in BLECs", "details": "normalized to cyclophilin A, 10 ng·mL^−1, 24 h; for VE-cadherin mRNA level versus control: ΔΔCt", "protocol": "(§1) Each condition was studied in triplicate.\nBLECs were washed twice with cold RH buffer, then lysed using RLT lysis buffer (Qiagen, Les Ulis, France). The cell lysates were extracted according to the manufacturer’s instructions “Qiagen RNeasy Mini kit”. Briefly, a volume of cell lysates was mixed with a volume of 70% (v/v) ethanol and placed in a column (Rneasy Mini kit, Qiagen, Les Ulis, France). A first centrifugation was performed to adsorb the RNAs to the column. A series of two rinses with buffer RW1 and a centrifugation (10.000 rpm, 30 s) were performed. Samples were treated with DNase in its RDD buffer for 20 min. Then, another succession of rinses (one with buffer RW1 and two with buffer RPE) and centrifugation (10.000 rpm, 30 s) were performed. Finally, water (RNAse Free) was added to the column to elute the RNAs by centrifugation (13.000 rpm, 2 min at 20 °C). The amount of extracted mRNAs was assayed by spectrophotometry (Synergy H1, Biotek, Colmar, France). Absorbances at 280 nm (proteins) and 260 nm (nucleic acids) were performed. The mRNA concentration was determined from the Beer-Lambert law and the mRNA purity of the sample was assessed with the Absorbance 260 nm/Absorbance 280 nm ratio. This ratio must be close to 2.1 to consider the sample to be with high purity. The mRNA samples were then stored at −80 °C.\nReverse transcription (RT) was performed on the samples containing the extracted mRNAs to obtain cDNAs. A total of 250 ng of mRNA was reverse-transcribed using iScriptTM reverse Transcription Supermix 5X (Biorad, Munich, Germany), containing reverse transcriptase, RNAse inhibitors, RNAse H, dNTPs (nucleoside triphosphates), oligonucleotides (dTs) (deoxy-thymine repeats) and random primers (hexamers of dNTPs randomly binding to mRNAs) and MgCl2). To each microtube, a volume of water (RNAse free) was added to obtain a final volume of 20 µL, then a reverse transcription cycle was performed in the thermal cycler (MJ Research): 5 min at 25 °C (hybridization), 30 min at 42 °C (reverse transcription) and 5 min at 85 °C (reverse transcription inactivation). The cDNA samples were then stored at −20 °C. For each reverse transcription and for each condition, an internal control was performed by adding iScriptTM No-RT control Supermix 5X (Biorad, Munich, Germany), a solution without the reverse transcriptase enzyme (NRT), instead of iScriptTM reverse Transcription Supermix 5X.\nThe qPCR was performed on a 96-well plate where each sample was deposited in triplicate. To perform qPCR, human-specific primer pairs were drawn for each gene of interest (Table 2).\nAn efficiency test and a melting curve were performed for each pair of primers used using the CFX Manager software (Biorad, Munich, Germany) allowing for the specificity and efficiency of the primers to be checked. A qPCR of the cDNAs obtained by RT-PCR was performed using the specific primers and a SsoFast^TM Evagreen SuperMix (Biorad, Munich, Germany) containing DNA polymerase, its cofactors, dNTPs and Evagreen® (a fluorochrome that binds to DNA during elongation). The amplification was carried out for 40 cycles with a hybridization temperature of 60 °C. The reaction was performed in a CFX96 Real-Time System thermal cycler (Biorad, Munich, Germany). Gene expression levels were assessed using the ΔΔCt method and normalized to a reference gene, cyclophilin A. The data were then plotted as a percentage against the control condition. Two controls were performed per primer pair: an NRT and a primer hybridization control (NTC), where the sample containing the cDNAs is replaced with water."}, "BLECs [2]": {"system": "BLECs", "assay": "Western immunoblotting of junctional proteins in BLECs", "details": "10 ng·mL^−1, 24 h", "protocol": "as §1\n(§2) After 24 h of treatments with or without proinflammatory cytokines, BLECs were washed twice with cold RH buffer and scraped with 70 μL of RIPA 1X lysis buffer (10 mM Tris-Cl (pH 8.0), 1 mM EDTA, 0.5 mM EGTA, 1% Triton X-100, 0.1% sodium deoxycholate, 0.1% SDS, 140 mM NaCl) (Merck Millipore, Burlington, MA, USA) or UT4 lysis buffer (7M Urea, 2M Thiourea, 4% CHAPS), both supplemented with a cocktail of phosphatase and protease inhibitors (1% protease inhibitors cocktail #P8340; 1% phosphatase inhibitors cocktail 1 P2850; 1% phosphatase inhibitors cocktail 2 #P5726; 1% protease inhibitors cocktail #P8340) purchased from Sigma-Aldrich (Lyon, France). Then, a centrifugation at 10,000 rpm for 10 min at 4 °C was achieved to save the supernatant of the lysate. This was later sonicated two times for 5 s on ice. The concentration of the protein lysate was quantified using the Bradford method (#5000006; rad, Munich, Germany). The protein samples were then stored at −20 °C.\n(§3) 20 μg of total protein was mixed with Laemmli 4X (#1610747; Biorad, Munich, Germany) supplemented with β-mercaptoethanol (Sigma-Aldrich, Germany). Depending on the protein target, details of the denaturation and reduction steps of the protein extract are described in Table 3. Then, the protein mixes were electrophoresed using Criterion™ TGX™ (Tris-Glycine eXtended) precast gels (Biorad, Munich, Germany) and subsequently electrotransferred to nitro-cellulose membranes (GE Healthcare, Munich, Germany). Once the previous step was completed, Tris-buffered saline 0.1% Tween 20 (TBST; 20 mM Tris-HCl, pH 8.0, 500 mM NaCl, 0.1% Tween 20) supplemented with 5% skimmed milk was added on membrane to block nonspecific binding sites for 1 h under agitation at RT. Membranes were incubated in the appropriate primary antibodies (as described in Table 3) and incubated at 4 °C overnight, except β-actin (20 min at RT).\n(§4) The following morning, the membranes were rinsed with TBST three times for 5 min each under agitation, and then incubated with the horseradish peroxidase-conjugated secondary antibody anti-rabbit (1:8000, Dako/Agilent Technologies, Inc., Santa Clara, CA, USA) or secondary antibody anti-mouse (1:5000, Dako/Agilent Technologies, Inc., Santa Clara, CA, USA) for 1 h at RT. […] Quantification of the relative densities of bands was performed with TotalLab TL 100 1D Gel Analysis software (Nonlinear Dynamics, Newcastle, UK). The protein expression normalization was conducted with anti-β-actin. Studies were performed with at least three independent experiments, with at least two Western immunoblottings per experiment."}, "BLECs [3]": {"system": "BLECs", "assay": "Western immunoblotting of receptors/transporters involved in Aβ peptide transport in BLECs", "details": "10 ng·mL^−1, 24 h; for downregulation of BCRP protein level compared to control / downregulation of LRP1 protein level compared to control: normalized to β-actin", "protocol": "as §1, §2, §3, §4"}}}
{"substance": "tumor necrosis factor-α [TNF-α]", "values": [{"measurement": "decrease of claudin-3 mRNA level compared to control", "setting": "BLECs [1]", "value": 61.8, "unit": "%"}, {"measurement": "decrease of occludin mRNA level compared to control", "setting": "BLECs [1]", "value": 66.3, "unit": "%"}, {"measurement": "decrease of tricellulin mRNA level compared to control", "setting": "BLECs [1]", "value": 68.1, "unit": "%"}, {"measurement": "increase of claudin-5 mRNA expression compared to control", "setting": "BLECs [1]", "value": 139.4, "unit": "%"}, {"measurement": "VE-cadherin mRNA level versus control", "setting": "BLECs [1]", "value": "not significantly different"}, {"measurement": "VE-cadherin protein level versus control", "setting": "BLECs [2]; normalized to β-actin", "value": "not significantly different"}, {"measurement": "ZO-1 protein level versus control", "setting": "BLECs [2]; normalized to β-actin", "value": "not significantly different"}, {"measurement": "decrease of claudin-3 protein level compared to control", "setting": "BLECs [2]; normalized to β-actin", "value": 57.3, "unit": "%"}, {"measurement": "decrease of occludin protein level compared to control", "setting": "BLECs [2]; normalized to β-actin", "value": 38.1, "unit": "%"}, {"measurement": "decrease of tricellulin protein level compared to control", "setting": "BLECs [2]; normalized to β-actin", "value": 50.9, "unit": "%"}, {"measurement": "increase of Claudin-5 protein expression compared to control", "setting": "BLECs [2]; normalized to β-actin", "value": 40.2, "unit": "%"}, {"measurement": "P-gp protein expression compared to control", "setting": "BLECs [3]", "value": "no significant change"}, {"measurement": "PICALM protein expression compared to control", "setting": "BLECs [3]", "value": "did not affect PICALM protein expression"}, {"measurement": "RAGE protein expression compared to control", "setting": "BLECs [3]", "value": "no significant change"}, {"measurement": "downregulation of BCRP protein level compared to control", "setting": "BLECs [3]", "value": 73.4, "unit": "%"}, {"measurement": "downregulation of LRP1 protein level compared to control", "setting": "BLECs [3]", "value": 41.9, "unit": "%"}]}
{"substance": "interleukin-1β [IL-1β]", "values": [{"measurement": "decrease of ZO-1 mRNA level compared to control", "setting": "BLECs [1]", "value": 48.1, "unit": "%"}, {"measurement": "decrease of claudin-3 mRNA level compared to control", "setting": "BLECs [1]", "value": 81.3, "unit": "%"}, {"measurement": "decrease of occludin mRNA level compared to control", "setting": "BLECs [1]", "value": 64.0, "unit": "%"}, {"measurement": "decrease of tricellulin mRNA level compared to control", "setting": "BLECs [1]", "value": 62.8, "unit": "%"}, {"measurement": "increase of claudin-5 mRNA expression compared to control", "setting": "BLECs [1]", "value": 48.1, "unit": "%"}, {"measurement": "VE-cadherin mRNA level versus control", "setting": "BLECs [1]", "value": "lower"}, {"measurement": "Claudin-5 protein levels versus control", "setting": "BLECs [2]", "value": "not reflected by a change in Claudin-5 protein levels"}, {"measurement": "decrease of ZO-1 protein expression compared to control", "setting": "BLECs [2]; normalized to β-actin", "value": 26.4, "unit": "%"}, {"measurement": "decrease of claudin-3 protein level compared to control", "setting": "BLECs [2]; normalized to β-actin", "value": 73.1, "unit": "%"}, {"measurement": "decrease of occludin protein level compared to control", "setting": "BLECs [2]; normalized to β-actin", "value": 33.5, "unit": "%"}, {"measurement": "decrease of tricellulin protein level compared to control", "setting": "BLECs [2]; normalized to β-actin", "value": 51.0, "unit": "%"}, {"measurement": "P-gp protein expression compared to control", "setting": "BLECs [3]", "value": "no significant change"}, {"measurement": "PICALM protein expression compared to control", "setting": "BLECs [3]", "value": "induced an increase of PICALM protein expression"}, {"measurement": "RAGE protein expression compared to control", "setting": "BLECs [3]", "value": "no significant change"}, {"measurement": "downregulation of BCRP protein level compared to control", "setting": "BLECs [3]", "value": 49.0, "unit": "%"}, {"measurement": "downregulation of LRP1 protein level compared to control", "setting": "BLECs [3]", "value": 45.2, "unit": "%"}]}
